Source: patent US20150307841A1, “Composition for Promoting Differentiation and Proliferation of Neural Stem Cell and Neural Precursor Cell” (priority 2014, published 2015)

Test system: GAD67-, VGluT1-, ChAT-positive neurons and OX42 reactive microglia in the hippocampus
Experiment: Immunohistochemical analysis of GAD67, VGluT1, ChAT, OX42 in hippocampus (Experimental Example 1)
Type: in vivo, rat
Description: Immunostaining was carried out using antibodies against VGluT1 (diluted 1:500, Chemicon), ChAT (1:500, Chemicon), GFAP (1:1,000, Chemicon), tyrosine hydroxylase (TH, 1:500, Chemicon) and OX42 (CD11b/c, 1:250, Serotec) as primary antibodies instead of the anti-BrdU antibodies used in (4). The other process was the same as in (4), except that incubation was performed at 37° C. for 30 minutes in 2 N HCl.
In the immunohistochemical analysis, the number of the cells immnunostained against each antibody was counted from 5 or 6 hippocampal coronal sections. For each staining analysis, every fifth cryosections of the hippocampal region of brain tissues (AP: bregma −4.5 to −4.3 mm) were taken for immunostaining. The number of the immnunostained cells was represented as an average of number of cells in the hippocampal region of one brain slice.
The number of the VGluT1- and GAD-positive cells in the brain slice samples 1 week and 4 weeks after the administration of soyasaponin I was presented per microscopic field (×400-VGluT1, ×800-GAD67) and the number of the ChAT-positive cells was presented per each hippocampal region (10-12 confocal laser microscopic fields). 5-11 animals were used per group. Western blotted membranes were analyzed using the multi-gauge, bio-imaging program on LAS-4000 Mini (Fujifilm Life Science, Stamford, Conn., USA). Densitometeric analysis of the expression ratios of VGluT1/β-actin, GAD65/67/β-actin and ChAT/β-actin was normalized to the vehicle group.

[1] = ibotenic acid injected into entorhinal cortex, no soyasaponin I
[2] = memory-deficient model rats, soyasaponin I at 5, 10, 20 mg/kg oral

## N[C@H](C(=O)O)c1cc(=O)[nH]o1 [IBO, Ibotenic acid]
[1]
  ChAT-positive cells in the hippocampus relative to Sham: 52.07 ± 7.38%
  GAD67-positive cells in the hippocampus relative to Sham: 43.02 ± 3.72%
  VGluT1-positive cells in the hippocampus relative to Sham: 72.44 ± 3.86%
[2]
  Number of ChAT-positive cells in the hippocampus: 7.30±1.32 cells
  Number of GAD67-positive cells: 3.81±0.63 cells per hippocampal slice
